Data from patent US8415376B2, “Inhibitors of PI3 kinase” (Amgen Inc., priority 2008, dated 2013).

What was measured:
mTOR = target: T1, mTOR (Homo sapiens, UniProt P42345); assay: In vitro mTOR assay (Lanthascreen); assay type: biochemical; conditions: average if run more than once
T1 construct: purchased Invitrogen (Carlsbad, Calif.)
Procedure, shortened: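 mTOR activity measured by TR-FRET as Thr46 phosphorylation of GFP-4E-BP1, detected with Tb-labelled anti-phospho-4E-BP1 [T46] antibody after EDTA stop. Final 50 ng/mL mTOR, 400 nM GFP-4E-BP1, 7 μM ATP in HEPES pH 7.5 with 10 mM MnCl2; 1 h, room temperature. 10-point 1:3 compound series.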

[1] = system: phosphorylation of Akt at Serine 473; assay: pAkt AlphaScreen (U87 cell); assay type: cell-based; conditions: Homo sapiens, U-87 MG; U87 MG cells, pAkt Ser473; average
Procedure, shortened: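 U87 MG cells (5K per well, plated overnight) were exposed to compound for two hours at 37° C, 25 μM down to 11.9 pM in 0.5% DMSO. After lysis, phospho-Akt Ser473 was measured by SureFire AlphaScreen following overnight room-temperature incubation, and IC50 was derived from percent of control.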

PI3Kα = target: T2, PI3Kα (Homo sapiens, UniProt P42336); assay: In vitro PI3K AlphaScreen assay; assay type: biochemical; conditions: average if run more than once
T2 construct: Full length p110 subunits of PI3K α, β and δ, N-terminally labeled with polyHis tag; polyHis (N); made in house; host or cells: Sf9 insect cells (baculovirus)
T2 sequence (P42336 whole entry): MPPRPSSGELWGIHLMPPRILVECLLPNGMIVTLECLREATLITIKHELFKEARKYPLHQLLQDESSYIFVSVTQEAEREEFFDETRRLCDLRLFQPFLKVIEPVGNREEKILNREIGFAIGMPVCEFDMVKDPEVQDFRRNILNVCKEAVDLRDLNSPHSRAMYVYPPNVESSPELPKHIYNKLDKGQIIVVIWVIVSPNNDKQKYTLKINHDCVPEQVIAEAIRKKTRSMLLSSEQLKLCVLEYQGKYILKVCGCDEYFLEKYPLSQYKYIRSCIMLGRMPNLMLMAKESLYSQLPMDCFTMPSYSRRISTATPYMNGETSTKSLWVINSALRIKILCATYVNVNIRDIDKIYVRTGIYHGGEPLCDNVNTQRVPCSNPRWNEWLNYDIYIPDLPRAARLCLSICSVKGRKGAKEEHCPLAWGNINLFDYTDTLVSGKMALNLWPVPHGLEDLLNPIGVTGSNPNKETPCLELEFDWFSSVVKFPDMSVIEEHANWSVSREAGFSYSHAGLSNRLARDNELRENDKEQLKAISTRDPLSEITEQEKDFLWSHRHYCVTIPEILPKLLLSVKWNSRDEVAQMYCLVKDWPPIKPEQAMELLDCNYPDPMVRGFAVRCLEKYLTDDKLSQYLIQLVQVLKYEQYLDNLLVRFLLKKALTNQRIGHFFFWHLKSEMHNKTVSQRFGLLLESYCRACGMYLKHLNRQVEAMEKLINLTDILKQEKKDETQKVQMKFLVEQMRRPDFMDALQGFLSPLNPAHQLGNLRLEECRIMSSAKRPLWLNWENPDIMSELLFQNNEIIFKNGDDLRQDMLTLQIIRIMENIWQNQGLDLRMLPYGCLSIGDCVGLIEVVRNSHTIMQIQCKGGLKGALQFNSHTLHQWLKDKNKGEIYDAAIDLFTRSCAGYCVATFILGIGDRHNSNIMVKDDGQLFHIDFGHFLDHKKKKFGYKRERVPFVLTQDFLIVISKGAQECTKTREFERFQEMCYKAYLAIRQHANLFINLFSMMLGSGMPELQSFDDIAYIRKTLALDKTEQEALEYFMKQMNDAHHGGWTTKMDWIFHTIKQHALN
T2 sequence (P27986 whole entry partner): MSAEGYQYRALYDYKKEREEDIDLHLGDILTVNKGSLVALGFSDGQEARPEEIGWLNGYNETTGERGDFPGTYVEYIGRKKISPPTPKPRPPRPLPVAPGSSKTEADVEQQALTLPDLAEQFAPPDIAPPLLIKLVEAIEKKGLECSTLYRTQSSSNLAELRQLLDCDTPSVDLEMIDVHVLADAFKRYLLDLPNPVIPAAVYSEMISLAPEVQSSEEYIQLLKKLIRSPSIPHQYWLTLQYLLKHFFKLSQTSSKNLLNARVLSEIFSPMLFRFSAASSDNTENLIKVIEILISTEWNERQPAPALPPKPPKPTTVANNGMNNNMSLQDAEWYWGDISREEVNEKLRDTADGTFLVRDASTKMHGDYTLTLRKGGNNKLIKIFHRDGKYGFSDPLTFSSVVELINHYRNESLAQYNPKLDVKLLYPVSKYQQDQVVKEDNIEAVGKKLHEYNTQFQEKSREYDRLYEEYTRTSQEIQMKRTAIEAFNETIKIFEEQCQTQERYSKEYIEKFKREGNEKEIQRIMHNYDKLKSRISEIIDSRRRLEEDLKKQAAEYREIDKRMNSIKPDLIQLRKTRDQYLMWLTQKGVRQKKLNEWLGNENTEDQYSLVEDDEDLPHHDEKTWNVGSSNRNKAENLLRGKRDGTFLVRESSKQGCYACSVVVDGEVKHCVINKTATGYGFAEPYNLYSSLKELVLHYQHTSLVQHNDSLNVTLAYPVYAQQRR

T1 sequence (P42345 1360-2549 limits assumed): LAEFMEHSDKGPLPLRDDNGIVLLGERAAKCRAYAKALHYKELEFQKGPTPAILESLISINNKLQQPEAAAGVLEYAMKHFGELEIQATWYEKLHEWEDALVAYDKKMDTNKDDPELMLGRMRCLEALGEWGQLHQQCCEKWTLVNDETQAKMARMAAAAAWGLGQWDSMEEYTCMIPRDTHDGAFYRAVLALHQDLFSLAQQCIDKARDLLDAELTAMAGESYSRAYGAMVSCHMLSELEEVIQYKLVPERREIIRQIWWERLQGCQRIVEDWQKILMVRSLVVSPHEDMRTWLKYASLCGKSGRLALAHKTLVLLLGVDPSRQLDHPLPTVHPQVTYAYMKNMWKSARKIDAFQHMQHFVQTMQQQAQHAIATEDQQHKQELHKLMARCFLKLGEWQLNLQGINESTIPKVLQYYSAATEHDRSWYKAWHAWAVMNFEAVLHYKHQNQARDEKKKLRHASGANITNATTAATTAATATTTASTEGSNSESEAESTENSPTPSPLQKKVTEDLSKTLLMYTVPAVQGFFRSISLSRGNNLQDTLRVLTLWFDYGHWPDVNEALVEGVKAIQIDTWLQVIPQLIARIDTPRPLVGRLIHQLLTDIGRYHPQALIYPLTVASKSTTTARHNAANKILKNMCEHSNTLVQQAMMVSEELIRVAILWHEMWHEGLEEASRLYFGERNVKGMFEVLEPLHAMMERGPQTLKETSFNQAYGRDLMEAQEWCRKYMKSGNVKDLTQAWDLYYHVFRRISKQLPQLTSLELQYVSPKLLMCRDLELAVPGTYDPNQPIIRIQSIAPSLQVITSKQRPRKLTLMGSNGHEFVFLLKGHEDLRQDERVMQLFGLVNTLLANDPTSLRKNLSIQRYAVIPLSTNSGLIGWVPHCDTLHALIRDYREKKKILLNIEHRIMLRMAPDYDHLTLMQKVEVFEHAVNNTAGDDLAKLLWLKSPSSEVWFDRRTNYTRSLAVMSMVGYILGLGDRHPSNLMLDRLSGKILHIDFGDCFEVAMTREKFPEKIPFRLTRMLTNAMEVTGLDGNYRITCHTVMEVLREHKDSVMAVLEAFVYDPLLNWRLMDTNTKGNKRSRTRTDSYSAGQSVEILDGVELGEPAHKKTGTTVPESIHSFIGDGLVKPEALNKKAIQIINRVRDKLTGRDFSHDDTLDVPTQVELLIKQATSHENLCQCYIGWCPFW

SMILES	IC50 (mTOR) [µM]	IC50 [1] [µM]	Ki (PI3Kα) [µM]
Cc1cc(-c2ccnc3ccc(-c4cnc(Cl)c(NS(C)(=O)=O)c4)cc23)ccn1 [Example 105, N-(2-chloro-5-(4-(2-methyl-4-pyridinyl)-6-quinolinyl)-3-pyridinyl)methanesulfonamide]	0.0015	0.0085	0.0015
CCN(Cc1noc(C2CC2)n1)c1ccnc2ccc(-c3cnc(Cl)c(NS(C)(=O)=O)c3)cc12 [Example 77, N-(2-chloro-5-(4-(((5-cyclopropyl-1,2,4-oxadiazol-3-yl)methyl)(ethyl)amino)-6-quinolinyl)-3-pyridinyl)methanesulfonamide]	0.0677	1.93	0.0184
CN(C)S(=O)(=O)Nc1cc(N2CCc3nccc(N4CCOCC4)c3C2)cnc1Cl [Example 136, N′-(2-Chloro-5-(4-(4-morpholinyl)-7,8-dihydro-1,6-naphthyridin-6(5H)-yl)-3-pyridinyl)-N,N-dimethylsulfamide]	0.065	0.289	0.111
COc1ccc(-n2c(=O)cnc3ccc(-c4cnc(Cl)c(NS(=O)(=O)N(C)C)c4)cc32)cn1 [Example 132, N-(2-chloro-5-(4-(6-methoxypyridin-3-yl)-3-oxo-3,4-dihydroquinoxalin-6-yl)pyridin-3-yl)dimethylaminosulfonamide]	0.0023	0.0408	0.0022
COCC1CCCN1c1ccnc2ccc(-c3cnc(Cl)c(NS(C)(=O)=O)c3)cc12 (stereo not drawn) [Example 81, N-(2-chloro-5-(4-(2-(methoxymethyl)-1-pyrrolidinyl)-6-quinolinyl)-3-pyridinyl)methanesulfonamide]	2.74	2.71	0.368
C[C@H]1CN(c2ccnc3ccc(-c4cnc(Cl)c(NS(C)(=O)=O)c4)cc23)C[C@H](C)O1 [Example 109, N-(2-chloro-5-(4-((2S,6S)-2,6-dimethyl-4-morpholinyl)-6-quinolinyl)-3-pyridinyl)methanesulfonamide]	0.0137	0.0214	0.0032
COCCN(C)S(=O)(=O)Nc1cc(-c2ccc3nccc(N4CCOCC4)c3c2)cnc1Cl [Example 123, N′-(2-Chloro-5-(4-(4-morpholinyl)-6-quinolinyl)-3-pyridinyl)-N-(2-methoxyethyl)-N-methylsulfamide]	0.0169	0.037	0.0054
CS(=O)(=O)Nc1cc(-c2ccc3nccc(N4CCN(Cc5ccc6c(c5)OCO6)CC4)c3c2)cnc1Cl [Example 84, N-(5-(4-(4-(1,3-benzodioxol-5-ylmethyl)-1-piperazinyl)-6-quinolinyl)-2-chloro-3-pyridinyl)methanesulfonamide]	0.0487	0.289	0.0225
CS(=O)(=O)Nc1cc(-c2ccc3nccc(-c4cccnc4)c3c2)cnc1Cl [Example 116, N-(2-Chloro-5-(4-(pyridin-3-yl)quinolin-6-yl)pyridin-3-yl)methanesulfonamide]	0.0029	0.019	0.0013
CS(=O)(=O)Nc1cc(-c2ccc3nccc(-c4cccnc4)c3c2)cnc1-c1cccnc1 [Example 117, N-(5-(4-(Pyridin-3-yl)quinolin-6-yl)-2,3′-bipyridin-3-yl)methanesulfonamide]	0.0015	0.255	0.0053
CCN(CCC#N)c1ccnc2ccc(-c3cnc(Cl)c(NS(C)(=O)=O)c3)cc12 [Example 78, N-(2-chloro-5-(4-((2-cyanoethyl)(ethyl)amino)-6-quinolinyl)-3-pyridinyl)methanesulfonamide]	0.0117	0.193	0.0276
O=S1(=O)CCC(COc2ccnc3ccc(-c4cnc(Cl)c(NS(=O)(=O)c5ccc(F)cc5)c4)cc23)CC1 [Example 113, N-(2-Chloro-5-(4-((tetrahydro-2H-thiopyran-1,1-dioxide-4-yl)methoxy)quinolin-6-yl)pyridin-3-3-yl)-4-fluorobenzenesulfonamide]	0.0146	0.0444	0.0016
